According to patent US10519111B2, “UV absorbing compounds, compositions comprising same and uses thereof” (CORAL SUNSCREEN PTY LTD, priority 2013, dated 2019):

Legend:
Format in all cases: physicochemical
[1] = Critical wavelength (λcrit), approximate in-house measurement
Source text: As the precise test for critical wavelength was unable to be replicated exactly by the inventors due to the need for specialist equipment and a specific calibration of the spectrophotometer, these values are only approximate to a degree. […] This represents a highly useful result and so, compounds based around this benzoyl substitution pattern shown, are especially preferred.

Photostability = settings: Table 13B
[2] = UV absorption properties (λmax, molar extinction coefficient ε, efficiency E 1%, 1 cm)
[3] = Table 13B, miscellaneous compounds
[4] = Table 13B, values in order of the λmax values
[5] = Table 13B, values in order of the λmax values, in M-1 cm-1
[6] = Table 7, values in order of the λmax values

SMILES | λcrit ([1]; Table 13B) | Photostability (%) (Photostability) | λmax [2, 3] | E (1%, 1 cm) [2, 4] | ε [2, 5] | further results
CN1C=C(C(=O)c2ccc(N(C)CCCCCCN(C)c3ccc(C(=O)C4=CN(C(C)(C)C)CCC4(C)C)cc3)cc2)C(C)(C)CC1 | 364 nm | 22% | – | – | – | –
CC1(C)CCN(C(C)(C)C)C=C1C(=O)c1ccc(F)cc1 | 346 nm | 75% | 316 nm | 655 | 20919 | –
CC1(C)CCN(C(C)(C)C)C=C1C(=O)c1ccccc1 | 342 nm | 76% | 315 nm | 939 | 25447 | –
CC1(C)CCN(C(C)(C)C)C=C1C(=O)c1c(F)c(F)c(F)c(F)c1F | 333 nm | 100% | 314 nm | 951 | 34340 | –
CC1(C)CCN(C(C)(C)C)C=C1C(=O)c1ccc(C(F)(F)F)cc1 | 349 nm | 76% | 315 nm | 782 | 26531 | –
CC1(C)CCN(C(C)(C)C)C=C1C(=O)c1ccccn1 | 360 nm | 22% | 317 nm | 635 | 17272 | –
Cc1cc(C)c(C(=O)C2=CN(C(C)(C)C)CCC2(C)C)c(C)c1 | 326 nm | 33% | 311 nm | 1084 | 33953 | –
C=CC(=O)C1=CN(CC(C)C)CCC1(C)C [drawing 112] | – | – | – | – | – | λmax ([2]; Table 7, unsaturated compounds): 330 nm; E (1%, 1 cm) [2, 6]: 915; ε [2, 6]: 20500 M⁻¹ cm⁻¹; λcrit ([1]; Table 7): 363 nm
CC(C)CN1C=C(C(=O)/C=C/c2ccc(C(F)(F)F)cc2)C(C)(C)CC1 [drawing 113] | – | – | – | – | – | λmax ([2]; Table 7, unsaturated compounds): 369 nm; E (1%, 1 cm) [2, 6]: 463; ε [2, 6]: 17000 M⁻¹ cm⁻¹; λcrit ([1]; Table 7): 388 nm
COc1ccc(/C=C/C(=O)C2=CN(CC(C)C)CCC2(C)C)cc1 [drawing 114] | – | – | – | – | – | λmax ([2]; Table 7, unsaturated compounds): 364 nm; E (1%, 1 cm) [2, 6]: 493; ε [2, 6]: 16150 M⁻¹ cm⁻¹; λcrit ([1]; Table 7): 386 nm
C=C/C=C/C(=O)C1=CN(CC(C)C)CCC1(C)C [drawing 117] | – | – | – | – | – | λmax ([2]; Table 7, unsaturated compounds): 352 nm; E (1%, 1 cm) [2, 6]: 730; ε [2, 6]: 18000 M⁻¹ cm⁻¹; λcrit ([1]; Table 7): 381 nm
CCC(=O)C1=CN(c2ccccc2)CCC1(C)C [drawing 122] | – | – | – | – | – | E (1%, 1 cm) ([2]; Table 8a): 947; ε ([2]; Table 8a): 23000 M⁻¹ cm⁻¹; λmax ([2]; Table 8a, N-phenyl compounds): 321 nm; λcrit ([1]; Table 8a): 349 nm
C=CC(=O)C1=CN(c2ccccc2)CCC1(C)C [drawing 123] | – | – | – | – | – | E (1%, 1 cm) ([2]; Table 8a): 874; ε ([2]; Table 8a): 21000 M⁻¹ cm⁻¹; λmax ([2]; Table 8a, N-phenyl compounds): 346 nm; λcrit ([1]; Table 8a): 373 nm
CC1(C)CCN(c2ccccc2)C=C1C(=O)c1ccc(Br)cc1 [drawing 124] | – | – | – | – | – | E (1%, 1 cm) ([2]; Table 8a): 629; ε ([2]; Table 8a): 23300 M⁻¹ cm⁻¹; λmax ([2]; Table 8a, N-phenyl compounds): 338 nm; λcrit ([1]; Table 8a): 366 nm
CCC(=O)C1=CN(c2ccc(OC)cc2)CCC1(C)C [drawing 127] | – | – | – | – | – | E (1%, 1 cm) ([2]; Table 8a): 862; ε ([2]; Table 8a): 23500 M⁻¹ cm⁻¹; λmax ([2]; Table 8a, N-phenyl compounds): 328 nm; λcrit ([1]; Table 8a): 350 nm
C=CC(=O)C1=CN(c2ccc(OC)cc2)CCC1(C)C [drawing 128] | – | – | – | – | – | E (1%, 1 cm) ([2]; Table 8a): 794; ε ([2]; Table 8a): 21500 M⁻¹ cm⁻¹; λmax ([2]; Table 8a, N-phenyl compounds): 350 nm; λcrit ([1]; Table 8a): 379 nm
COc1ccc(N2C=C(C(=O)c3ccc(F)cc3)C(C)(C)CC2)cc1 [drawing 129] | – | – | – | – | – | E (1%, 1 cm) ([2]; Table 8a): 571; ε ([2]; Table 8a): 19350 M⁻¹ cm⁻¹; λmax ([2]; Table 8a, N-phenyl compounds): 341 nm; λcrit ([1]; Table 8a): 369 nm
COc1ccc(N2C=C(C(=O)C3CCCC3=O)C(C)(C)CC2)cc1 (stereo not drawn) [drawing 130] | – | – | – | – | – | E (1%, 1 cm) ([2]; Table 8b): 938; λmax ([2]; Table 8b, N-phenyl compounds): 332 nm; ε ([2]; Table 8b, in M-1 cm-1): 30675; λcrit ([1]; Table 8b): 358 nm

Continued, in another order:

λcrit ([1]; Table 13B) | Photostability (%) (Photostability) | λmax [2, 3] | E (1%, 1 cm) [2, 4] | ε [2, 5] | SMILES | further results
386 nm | 95% | 360 nm | 395 | 20388 | CC1(C)CCN(C(C)(C)C)C=C1C(=O)/C=C/c1cccc(/C=C/C(=O)C2=CN(C(C)(C)C)CCC2(C)C)c1 | –
331 nm | 85% | 312 nm | 1162 | 35700 | CC1(C)CCN(C(C)(C)C)C=C1C(=O)c1c(F)cccc1F | –
344 nm | 50% | 311 nm | 998 | 26668 | CCOC(=O)C(=O)C1=CN(C(C)(C)C)CCC1(C)C | –
362 nm | 68% | 332 nm | 1210 | 34743 | CCOC(=O)C(=O)C1=CN(c2ccccc2)CCC1(C)C | –
